In patent US20140161729A1, “COFLUORONS AND METHODS OF MAKING AND USING THEM” (CORNELL UNIVERSITY, priority 2011, published 2014):

Legend:
[1] = Fluorescence measurements of cofluoron monomers and multimers without target; assay type: physicochemical; conditions: for maximum fluorescence emission / wavelength of maximum emission: 100 μM (each), 0.1M phosphate pH 7.4, 100 μM EDTA, excited at 300 nM
Experimental: The fluorescence properties of cofluorons were measured in 0.1M HEPES or 0.1M phosphate buffer at pH 7.4 in 96- or 384-well black plates using a Molecular Dynamics SpectraMax M5 plate reader. Cofluoron samples were excited at discrete wavelengths and the fluorescence emission was scanned across a range of wavelengths (between 400 and 750 nm). The fluorescence properties of individual cofluoron monomers, as well as the fluorescent properties of cofluoron multimers formed by association of different combinations of cofluoron monomers, were tested and compared.
Fluorescence emission spectra were recorded for cofluoron monomers T147 and T27F individually at a concentration of 100 μM as well as in combination where each cofluoron monomer was at a concentration of 100 μM, in a 0.1M phosphate buffer at pH 7.4 containing 100 μM EDTA. The samples were excited at 300 nM and fluorescence emissions were measured between 300-750 nm on a Spectramax M5 spectrofluorometer. […] The fluorescence emission was enhanced to 4062 RFU and the emission wavelength shifted to 420 nm when the two cofluoron monomers were combined (See FIG. 19).
FIGS. 21 through 34 show the results of fluorescent measurements on the monomers T27 or T27F containing a dihydroxy moiety and multimers formed by mixing the dihydroxy compound with various monomer binding partners containing a boronic acid. These multimers have increased affinity for human mast cell β2-tryptase as compared to the monomers. The fluorescence properties of cofluorons were measured 0.1M phosphate buffer at pH 7.4 containing either 100 or 200 μM EDTA, in 96- or 384-well black plates using a Molecular Dynamics SpectraMax M5 plate reader. Cofluoron samples were excited at discrete wavelengths and the fluorescence emission was scanned across a range of wavelengths (between 400 and 750 nm).

[2] = Fluorescence measurements of cofluoron models (linker element monomers and their multimers with boronic acids); assay type: physicochemical; conditions: for fluorescence change on addition to linker element SL1 (2-hydroxy-3-naphthalenecarboxamide) / fluorescence change on addition to linker element SL3 (gallic acid ethanolamide): boronic acid 300 μM; for fluorescence change on addition to linker element SL1 (2-hydroxy-3-naphthalenecarboxamide): SL1 100 μM, FIG. 6A; for fluorescence change on addition to linker element SL3 (gallic acid ethanolamide): SL3 100 μM, FIG. 6B
[3] = target: human mast cell β2-tryptase (Homo sapiens, UniProt P20231); assay: Binding of cofluoron monomers and dimers to tryptase (IC50, affinity); conditions: 1:1 combination with T27 or T27F
Tryptase = Tryptase (Homo sapiens, UniProt P20231); assay: Fluorescence of cofluoron pairs in the presence or absence of Tryptase; assay type: binding; conditions: phosphate buffer pH 7.4, 200 mM NaCl, excited at 360 nm
Experimental: The fluorescence emission measurements on cofluorons binding to the target tryptase were measured in 0.1M HEPES or 0.1M phosphate buffer at pH 7.4 in 96- or 384-well black plates using a Molecular Dynamics SpectraMax M5 plate reader. Cofluoron samples were excited at discrete wavelengths and the fluorescence emission was scanned across a range of wavelengths (between 400 and 750 nm). The fluorescence properties of cofluoron monomers and cofluoron multimers in the presence of 3 μM tryptase as well as in the absence of tryptase were measured and compared.
To test whether the cofluorons retained their fluorescence when binding to the target Tryptase, fluorescence were measured on the cofluoron multimers formed by mixing 6 μM T43 with 6 μM T34, T11, T35, and T37, respectively, in the presence or absence of 5 μM Tryptase, in aqueous 50 μM phosphate buffer (pH 7.4) containing 200 mM NaCl. Excitation was at 360 nm, and the portion of emission containing meaningful signal is between 400 nm and 550 nm.

human mast cell line = assay: Intracellular fluorescence of cofluorons (microscopy under UV excitation); assay type: cell-based; conditions: 100 μM (each) cofluoron monomer
Experimental: Human mast cell β2-tryptase containing cells, grown in standard media, were incubated with 100 μM monomer 1 for 15 minutes at room temperature, followed by the addition of 100 μM monomer 2. Stock concentrations of cofluorons, 50 mM in DMSO, were diluted in media immediately before use. For localization studies, 10.5% PEG and 0.0005% berberine were added to costain mast cell granules. Fluorescent signals were detected using an inverted CKX41 Olympus microscope under UV excitation and an 100× oil immersion lens. Images were recorded using an Olympus DP20 digital camera.

[4] = 100 μM 2-hydroxy-3-naphthalenecarboxamide + 300 μM boronic acid, 0.1M phosphate pH 7.4, 50% DMSO, excited at 350 nm

Chain of Tryptase (P20231 31-275): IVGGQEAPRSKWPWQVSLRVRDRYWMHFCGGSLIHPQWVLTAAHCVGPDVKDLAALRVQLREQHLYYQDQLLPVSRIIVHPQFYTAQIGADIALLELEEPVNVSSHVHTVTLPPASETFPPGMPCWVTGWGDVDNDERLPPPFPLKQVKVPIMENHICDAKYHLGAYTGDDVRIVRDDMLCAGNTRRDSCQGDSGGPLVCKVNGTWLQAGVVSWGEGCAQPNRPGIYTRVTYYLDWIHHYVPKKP
Chain of human mast cell β2-tryptase (P20231 31-275): as above

NCc1cccc(C2CCN(C(=O)c3cccc4sc(B(O)O)cc34)CC2)c1 [T37]
fluorescent signal enhancement of multimer formed with T43, among all multimers tested ([1]; 100 μM T43 + 100 μM partner, 0.1M phosphate pH 7.4 aqueous, excited at 360 nm): strongest fluorescent signal enhancements

OB(O)c1ccccc1F [2-fluorophenylboronic acid]
fluorescent emission intensity at 390 nm, fold higher than 3,4,5-trihydroxybenzamide alone ([2]; multimer with 3,4,5-trihydroxybenzamide, 100 μM each, 0.1M HEPES pH 7.9, 50% DMSO, excited at 340 nm): 10 fold

OB(O)c1cccnc1F [2-fluoropyridine-3-boronic acid]
enhancement of fluorescent emission signal at 420 nm over monomer 2-hydroxy-3-naphthalenecarboxamide [2, 4]: more than 80 fold

OB(O)c1cc(F)cc(F)c1 [2c, 3,5-difluorophenylboronic acid]
fluorescence change on addition to linker element SL1 (2-hydroxy-3-naphthalenecarboxamide) [2]: stronger fluorescent signal, as well as a fluorescent emission wavelength shift to a lower wavelength
fluorescence change on addition to linker element SL3 (gallic acid ethanolamide) [2]: stronger fluorescent signal, as well as a fluorescent emission wavelength shift to a higher wavelength

NCc1ccc(F)c(C2CCN(C(=O)c3cccc4cc(O)c(O)cc34)CC2)c1 [T27F]
maximum fluorescence emission [1]: 380 RFU
wavelength of maximum emission [1]: 520 nm

NC(=O)c1cc2ccccc2cc1O [2-hydroxy-3-naphthalenecarboxamide, 2-Hydroxy-3-naphthalenecarboxamide]
fluorescent emission maximum ([2]; 2-hydroxy-3-naphthalenecarboxamide 100 μM, alone or with 300 μM boronic acids, 0.1M phosphate pH 7.4, 50% DMSO, excited at 350 nm): 500 nm
fluorescent emission maximum ([2]; 2-hydroxy-3-naphthalenecarboxamide alone or with boronic acids, phosphate pH 7.4, absence of DMSO, excited at 350 nm): about 510 nm

CN(Cc1ccccc1B(O)O)c1ccc(C(=O)N2CCC(c3cccc(CN)c3)CC2)cc1 [T147, (2-(((4-(4-(3-(aminomethyl)phenyl)piperidine-1-carbonyl)phenyl)(methyl)amino)methyl)phenyl)boronic acid]
affinity to human β-tryptase of dimer versus monomers [3]: higher affinity to human β-tryptase than either monomer
maximum fluorescence emission [1]: 194 RFU
wavelength of maximum emission [1]: 390 nm

COC(=O)c1cc(O)c(O)c(O)c1 [methyl 3,4,5-trihydroxybenzoate]
fluorescent emission peak ([2]; methyl 3,4,5-trihydroxybenzoate 100 μM, alone or with 300 μM boronic acids, 0.1M phosphate pH 7.4, 50% DMSO, excited at 350 nm): about 390 nm

OB(O)c1cc2ccccc2o1 [benzofuran-2-boronic acid]
enhancement of fluorescent emission signal at 420 nm over monomer 2-hydroxy-3-naphthalenecarboxamide [2, 4]: about 40 fold

OB(O)c1cccnc1F [2b, 2-fluoropyridine-3-boronic acid]
fluorescence change on addition to linker element SL1 (2-hydroxy-3-naphthalenecarboxamide) [2]: stronger fluorescent signal, as well as a fluorescent emission wavelength shift to a lower wavelength
fluorescence change on addition to linker element SL3 (gallic acid ethanolamide) [2]: stronger fluorescent signal, as well as a fluorescent emission wavelength shift to a higher wavelength

CN(C)c1ccc(B(O)O)cn1 [2-(N,N-dimethylamino)pyridine-5-boronic acid]
increase in fluorescence emission intensity of 7,8-dihydroxy-4-methylcoumarin on forming oligomer with boronic acid partner ([2]; 100 μM 7,8-dihydroxy-4-methylcoumarin + 300 μM boronic acid, 0.1M phosphate pH 7.4, 50% DMSO, excitation 350 nm, emission 520 nm): did not provide any enhanced signal

NCc1cccc(C2CCN(C(=O)/C=C/c3cccc(B(O)O)c3)CC2)c1 [T34]
fluorescent signal of dimer with T43 in the absence of tryptase (Tryptase; 6 μM each): hardly any fluorescent signal
fluorescent signal enhancement in the presence of tryptase versus in the absence of tryptase (Tryptase; pair with T43, 6 μM each, 5 μM Tryptase): 3 fold

OB(O)c1cc2ccccc2o1 [2d, benzofuran-2-boronic acid]
fluorescence change on addition to linker element SL1 (2-hydroxy-3-naphthalenecarboxamide) [2]: stronger fluorescent signal, as well as a fluorescent emission wavelength shift to a lower wavelength
fluorescence change on addition to linker element SL3 (gallic acid ethanolamide) [2]: stronger fluorescent signal, as well as a fluorescent emission wavelength shift to a higher wavelength

OB(O)c1cc(F)cc(F)c1 [3,5-difluorophenylboronic acid]
enhancement of fluorescent emission signal at 420 nm over monomer 2-hydroxy-3-naphthalenecarboxamide [2, 4]: about 40 fold
fluorescent signal enhancement of multimer with 2-hydroxy-3-naphthalenecarboxamide ([2]; 100 μM 2-hydroxy-3-naphthalenecarboxamide + 300 μM boronic acid, phosphate pH 7.4, absence of DMSO, excited at 350 nm): 30 fold

OCc1ccccc1B(O)O [2-(hydroxymethyl)phenylboronic acid]
enhancement of fluorescent emission signals at 460 nm over monomer methyl 3,4,5-trihydroxybenzoate ([2]; 100 μM methyl 3,4,5-trihydroxybenzoate + 300 μM boronic acid, 0.1M phosphate pH 7.4, 50% DMSO, excited at 350 nm): about 7 fold

Cl.NCc1cccc(C2CCN(C(=O)/C=C/c3ccc(O)c(O)c3)CC2)c1 [T24, (E)-1-(4-(3-(aminomethyl)phenyl)piperidin-1-yl)-3-(3,4-dihydroxyphenyl)prop-2-en-1-one hydrochloride]
fluorescent staining of cells (human mast cell line): somewhat brighter staining

NCc1cccc(C2CCN(C(=O)/C=C/c3cc(O)c(O)c(O)c3)CC2)c1 [T43]
fluorescent signal between 400 nm and 550 nm, monomer without boronic acid partner (Tryptase; 6 μM): essentially no fluorescent signal
emission peak ([1]; T43 100 μM, alone or with 100 μM boronic acid partners, 0.1M phosphate pH 7.4 aqueous, excited at 360 nm): 440 nm
